The record followed here is patent EP4778933A1 (Chengdu Hyperway Pharmaceuticals Co., Ltd., priority 2023, dated 2025).

Format in all cases: cell-based
The subject of assay [1] is KRAS G12D-mediated ERK phosphorylation. Nature of the assay: Inhibition of KRAS G12D-mediated ERK phosphorylation in AGS cells (in-cell pERK/GAPDH immunofluorescence). The conditions noted are these: AGS cells, 3 h incubation, read-out: Inhibitory activity on ERK phosphorylation (IC50) AGS-G12D. The essentials:
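AGS, SW480, NCI H358 and KP2 cells were seeded overnight, then treated with compounds for 3 h at 37°C. After fixation, permeabilization and blocking, pERK and GAPDH were immunostained and read by two-colour infrared fluorescence. The pERK/GAPDH ratio was normalized to DMSO and 10 µM reference controls, and IC50 was fitted with a four-parameter logistic model.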

Assay [2] has as its system GP2D (KRASG12D). Nature of the assay: 3D cell proliferation inhibition test (CellTiter-Glo 3D, 7 days), GP2D. The conditions noted are these: 168 h, read-out: Inhibitory activity on cell proliferation (IC50) GP2D (KRASG12D). Here is the method:
(§1) The diluted compounds to be tested were added to 384-well low-adhesion KRAS mutant types (such as GP2D, NCI H358, LoVo, RKN and KP2) of cell culture plates by using a nanoliter pipetting system (LABCYTE, P-0200). Then, the cells were plated and incubated in a 37°C, 5% CO2 incubator for 7 days. Afterward, CellTiter-Glo® 3D reagent was added, and the luminescent values were read by an Envision multifunctional microplate reader (the luminescent signal is proportional to the amount of ATP in the system, and the ATP content directly represents the number of viable cells in the system). Finally, the IC50 values (half-maximal inhibitory concentration) of the compounds were obtained by the XLFIT software using the nonlinear fitting formula.
(§2) • a) The diluted compounds to be tested were added to 384-well low-adhesion KRAS mutant types of cell culture plates by using a nanoliter pipetting system. • b) Cells were seeded into the 384-well plates in a) and then centrifuged at 1000 rpm for 1 min at room temperature, with a final DMSO concentration of compound being 0.5%. The plates were then incubated in a 5% CO2 constant-temperature incubator at 37°C for 7 days. • c) CellTiter-Glo® 3D was added to the 384-well cell culture plates in b), shaken in the dark, and incubated at room temperature. • d) The luminescence values were read by using an Envision multifunctional microplate reader.
(§3) The IC50 (half-maximal inhibitory concentration) values of the compounds were obtained by using XLFIT software according to the following nonlinear fitting formula: Y = Bottom + (Top−Bottom)/(1+10^(∧)((LogIC50−X)×HillSlope)) [formula] • X: log value of compound concentration. • Y: inhibition rate (%) [formula] • Negative control: DMSO. • Positive control: Medium only.
In general terms: Cellular ATP, detected with luciferase, serves as a proxy for viable cell number.

For assay [3], the system named is NCI H358 (KRAS G12C). As to the kind of experiment: 3D cell proliferation inhibition test (CellTiter-Glo 3D, 7 days), NCI H358. The conditions noted are these: Homo sapiens, NCI-H358, 168 h, read-out: Inhibitory activity on cell proliferation (IC50) NCI H358 (KRAS G12C). Here is the method:
as §1
as §2, with “reader. […]” for “reader.”

Assay [4] relates to RKN (KRAS G12V). As to the kind of experiment: 3D cell proliferation inhibition test (CellTiter-Glo 3D, 7 days), RKN. The conditions noted are these: 168 h, read-out: Inhibitory activity on cell proliferation (IC50) RKN (KRAS G12V). The protocol: as §1, §2, §3
Assay [5] deals with KP2 (KRAS G12R). As to the kind of experiment: 3D cell proliferation inhibition test (CellTiter-Glo 3D, 7 days), KP2. The conditions noted are these: 168 h, read-out: Inhibitory activity on cell proliferation (IC50) KP2 (KRAS G12R). Here is the method:
as §1
as §2, with “reader. […]” for “reader.”

Read-outs that look alike come from different tables or passages of the source.

`CC1(O)COCCN(c2nc(OCC34CCCN3C(c3cc(F)c(F)c(F)c3)CC4)nc3c(F)c(-c4cccc5sc(N)c(C#N)c45)c(Br)cc23)C1` (single isomer, unassigned) [Example 26, 2-amino-4-[6-bromo-8-fluoro-4-(6-hydroxy-6-methyl-1,4-oxazepan-4-yl)-2-({[3-(3,4,5-trifluoropheny 1)-2,3,5,6,7,7a-hexahydro-1H-pyrrolizin-7a-yl]methyl}oxy)quinazolin-7-yl]benzo[b]thiophene-3-carb onitrile]: the IC50 is 2.7 nM in assay [1] (Homo sapiens, AGS, 3 h); 2.99 nM in assay [2]; 1.03 nM in assay [3]; 4.32 nM in assay [4]; 56.6 nM in assay [5].
`CC1(O)COCCN(c2nc(OCC34CCCN3C(c3cc(F)c(F)c(F)c3)CC4)nc3c(F)c(-c4cccc5sc(N)c(C#N)c45)c(I)cc23)C1` (single isomer, unassigned) [Example 31, 2-amino-4-[6-iodo-8-fluoro-4-(6-hydroxy-6-methyl-1,4-oxazepan-4-yl)-2-({[3-(3,4,5-trifluorophenyl)-2,3,5,6,7,7a-hexahydro-1H-pyrrolizin-7a-yl]methyl}oxy)quinazolin-7-yl]benzo[b]thiophene-3-carbonitrile]: the IC50 in assay [1] amounted to 1.9 nM; in assay [2], 1.75 nM; in assay [3], 0.69 nM; in assay [4] it was 3.69 nM; in assay [5], 59.1 nM.
